Experimental findings from patent publication US8895585B2, “Nicotinamide derivative or salt thereof” (FUJIFILM Corporation, priority 2010, dated 2014) are described below.

Assay [1] deals with T1, glutathione S-transferase (GST)-fused full-length human Syk protein (Homo sapiens, UniProt P43405).
T1 construct: (GST)-fused full-length human Syk protein; GST (glutathione S-transferase); purchased Carna Biosciences
Nature of the assay: Syk enzyme assay. Format: biochemical. As to conditions: Syk enzyme assay, Test Example 1; read-out: IC50 of Syk-inhibitory activity. In outline:
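GST-tagged full-length human Syk (baculovirus) preincubated with compound 15 min at room temperature (pH 7.0, 10 mM MgCl2), then reacted 40 min with 0.4 μM biotinylated peptide substrate and 27 μM ATP (final). Phosphorylation read by HTRF (615/665 nm) after EDTA stop; IC50 reported.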

Assay [2] has as its system THP-1 cells. The experiment in a line: TNFα generation assay. Format: cell-based, human. As to conditions: Table 22, read-out: IC50 in TNFα generation assay. In outline: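 THP-1 cells differentiated to macrophage-like cells with 10 ng/ml IFN-γ for 2 days, preincubated with compound 30 min at room temperature, then cultured 7 h on plates coated with human IgG (10 μg/ml). Secreted TNFα measured by ELISA or AlphaLISA.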

Assay [3] concerns THP-1 cells. The experiment in a line: Antibody-dependent phagocytosis assay. Format: cell-based. The following applies: Homo sapiens; THP-1 cells induced to differentiate with IFNγ; opsonized Escherichia coli; Table 23; read-out: IC50 upon phagocytosis inhibition. As to the method: THP-1 cells (2×10^5 cells/ml) which are human monocyte-like cell line were cultured in the presence of 10 ng/ml IFNγ for 2 days, so that the cells were induced to differentiate into macrophage-like cells. THP-1 cells that had been induced to differentiate were collected. The cells (5×10^4 cells/well) were reacted with test compounds having given concentrations at room temperature for 30 minutes. Thereafter, Escherichia coli (Life Technologies) labeled with a pH-sensitive dye (pHrodo) was subjected to opsonization using an anti-Escherichia coli antibody (Molecular Probes). Then, the resultant was added to THP-1 cells mixed with test compounds that had been induced to differentiate, followed by incubation at 37° C. for 3 hours. At the time of addition of opsonized Escherichia coli, cell-permeable fluorescent dye (Calcein AM) were simultaneously added thereto, and phagocytosis of opsonized Escherichia coli in viable cells was quantitatively determined using an IN Cell Analyzer.
In addition, the following are used in Table 23 to denote standards for evaluating IC50 upon phagocytosis inhibition. • A: Up to 1 μM • B: 1 to 3 μM • C: 3 to 6 μM

Where [4] appears, read: Homo sapiens, THP-1, THP-1 cells.

Regarding `NC(=O)c1cc(F)c(N[C@@H]2CCCC[C@@H]2N)nc1Nc1cnc(N2CCOCC2)c(F)c1` [Example 006-395, 6-(((1R,2S)-2-aminocyclohexyl)amino)-5-fluoro-2-((5-fluoro-6-morpholinopyridin-3-yl)amino)nicotinamide], the IC50 in assay [1] is 10 to 50 nM; with THP-1 cells [2] (setting [4]), 65 to 130 nM; in the assay on THP-1 cells [3], 1000 to 3000 nM.
Taken in the same sequence, the figures for `NC(=O)c1cc(F)c(N[C@@H](C(N)=O)c2ccccc2)nc1Nc1ccc2ncccc2c1` [Example 012-008] were 10 to 50 nM, 65 to 130 nM and 1000 to 3000 nM.
Regarding `COCCOc1ccc2cc(Nc3nc(N[C@@H]4CCCC[C@@H]4N)c(F)cc3C(N)=O)cnc2c1` [Example 006-173, 6-(((1R,2S)-2-aminocyclohexyl)amino)-5-fluoro-2-((7-(2-methoxyethoxy)quinolin-3-yl)amino)nicotinamide], the IC50 in assay [1] is below 10 nM; in the assay with THP-1 cells [2] (THP-1 cells) it was 65 to 130 nM; in the assay with THP-1 cells [3] it was 1000 to 3000 nM.
With `CC[C@@H](Nc1nc(Nc2cncc(-c3cccc(OC)c3F)c2)c(C(N)=O)cc1F)[C@H](C)N` [Example 006-278, 6-(((2S,3R)-2-aminopentan-3-yl)amino)-5-fluoro-2-((5-(2-fluoro-3-methoxyphenyl)pyridin-3-yl)amino)nicotinamide], the figures for the IC50 (in assay [1]; in the assay with THP-1 cells [2] (setting [4]); in the assay on THP-1 cells [3]) were below 10 nM, below 65 nM and 1000 to 3000 nM, respectively.
As to `CCn1ncc2cc(Nc3nc(N[C@@H](CN)CC(C)C)c(F)cc3C(N)=O)ccc21` [Example 006-322, (R)-6-((1-amino-4-methylpentan-2-yl)amino)-2-((1-ethyl-1H-indazol-5-yl)amino)-5-fluoronicotinamide], the IC50 is below 10 nM in assay [1], below 65 nM in the assay on THP-1 cells [2] (setting [4]) and below 1000 nM with THP-1 cells [3].
As for `NC(=O)c1cc(F)c(NC2CCCCC2N)nc1Nc1ccc2ncccc2c1` (stereo not drawn) [Example 008-006], the IC50 in assay [1] is below 10 nM; in the assay on THP-1 cells [2] (setting [4]), below 65 nM; in the assay with THP-1 cells [3] it was below 1000 nM.
As for `CC[C@@H](Nc1nc(Nc2ccc3c(OC)nccc3c2)c(C(N)=O)cc1F)[C@H](C)N` [Example 006-263, 6-(((2S,3R)-2-aminopentan-3-yl)amino)-5-fluoro-2-((1-methoxyisoquinolin-6-yl)amino)nicotinamide], the IC50 in assay [1] is below 10 nM; with THP-1 cells [2] (setting [4]) it was below 65 nM; in the assay on THP-1 cells [3], 1000 to 3000 nM.
On the same counts, the results for `NC(=O)c1cc(F)c(N[C@@H]2CCCC[C@@H]2N)nc1Nc1ccc(N2CCOCC2)nc1` [Example 006-165, 6-(((1R,2S)-2-aminocyclohexyl)amino)-5-fluoro-2-((6-morpholinopyridin-3-yl)amino)nicotinamide] are 10 to 50 nM, 65 to 130 nM and 1000 to 3000 nM.
As for `COc1cc(Nc2nc(NC[C@H](C)N)c(F)cc2C(N)=O)cc(OC)n1` [Example 006-098, (S)-6-((2-aminopropyl)amino)-2-((2,6-dimethoxypyridin-4-yl)amino)-5-fluoronicotinamide], the IC50 in assay [1] is below 10 nM; with THP-1 cells [2] (setting [4]), below 65 nM; in the assay with THP-1 cells [3], below 1000 nM.
On the same counts, the results for `Cc1ncc(Nc2nc(N[C@@H]3CCCC[C@@H]3N)c(F)cc2C(N)=O)cc1-n1nccn1` [Example 006-375, 6-(((1R,2S)-2-aminocyclohexyl)amino)-5-fluoro-2-((6-methyl-5-(2H-1,2,3-triazol-2-yl)pyridin-3-yl)amino)nicotinamide] are below 10 nM, 65 to 130 nM and 1000 to 3000 nM.
Taken in the same sequence, the figures for `CCC[C@@H](Nc1nc(Nc2ccnc(OC)c2)c(C(N)=O)cc1F)[C@H](C)N` [Example 006-249, 6-(((2S,3R)-2-aminohexan-3-yl)amino)-5-fluoro-2-((2-methoxypyridin-4-yl)amino)nicotinamide] were below 10 nM, below 65 nM and 1000 to 3000 nM.
On to `COc1ncc(Nc2nc(N[C@@H]3CCCC[C@@H]3N)c(F)cc2C(N)=O)cc1-n1nccn1` [Example 006-377, 6-(((1R,2S)-2-aminocyclohexyl)amino)-5-fluoro-2-((6-methoxy-5-(2H-1,2,3-triazol-2-yl)pyridin-3-yl)amino)nicotinamide], for which the results for the IC50 (in assay [1]; in the assay with THP-1 cells [2] (setting [4]); with THP-1 cells [3]) were below 10 nM, below 65 nM and 1000 to 3000 nM, respectively.
On to `CCCOc1cc(Nc2nc(N[C@H](CCC)[C@H](C)N)c(F)cc2C(N)=O)ccn1` [Example 006-311, 6-(((2S,3R)-2-aminohexan-3-yl)amino)-5-fluoro-2-((2-propoxypyridin-4-yl)amino)nicotinamide], for which the IC50 is below 10 nM in assay [1], 65 to 130 nM with THP-1 cells [2] (setting [4]) and 1000 to 3000 nM with THP-1 cells [3].
As for `NC(=O)c1cc(F)c(N[C@@H]2CCCC[C@@H]2N)nc1Nc1cncc(-n2nccn2)c1` [Example 004-042], the IC50 is below 10 nM in assay [1], 65 to 130 nM with THP-1 cells [2] (setting [4]) and 1000 to 3000 nM with THP-1 cells [3].
For the compound `C[C@H](N)[C@H](Nc1nc(Nc2ccc3ncccc3c2)c(C(N)=O)cc1F)C1CC1` [Example 006-368, 6-(((1R,2S)-2-amino-1-cyclopropylpropyl)amino)-5-fluoro-2-((quinolin-6-yl)amino)nicotinamide], the IC50 in assay [1] was below 10 nM; with THP-1 cells [2] (setting [4]), below 65 nM; with THP-1 cells [3], below 1000 nM.
Taken in the same sequence, the figures for `CC[C@@H](Nc1nc(Nc2ccc3c(cnn3CC)c2)c(C(N)=O)cc1F)[C@H](C)N` [Example 006-211, 6-(((2S,3R)-2-aminopentan-3-yl)amino)-2-((1-ethyl-1H-indazol-5-yl)amino)-5-fluoronicotinamide] were below 10 nM, below 65 nM and 1000 to 3000 nM.
Take `COC[C@@H](Nc1nc(Nc2ccc3ncccc3c2)c(C(N)=O)cc1F)[C@H](C)N` [Example 006-468, 6-(((2S,3S)-3-amino-1-methoxybutan-2-yl)amino)-5-fluoro-2-((quinolin-6-yl)amino)nicotinamide]: the IC50 was below 10 nM in assay [1], below 65 nM with THP-1 cells [2] (setting [4]) and below 1000 nM in the assay on THP-1 cells [3].
On the same counts, the results for `NC(=O)c1cc(F)c(N[C@@H]2CCCC[C@@H]2N)nc1Nc1cc(F)c2[nH]ccc2c1` (relative stereo) [Example 004-079, 6-(cis-2-aminocyclohexylamino)-5-fluoro-2-((7-fluoro-1H-indol-5-yl)amino)nicotinamide] are below 10 nM, below 65 nM and 1000 to 3000 nM.
In the case of `CC(C)C[C@@H](Nc1nc(Nc2ccc3c(cnn3C)c2)c(C(N)=O)cc1F)[C@H](C)N` [Example 006-383, 6-(((2S,3R)-2-amino-5-methylhexan-3-yl)amino)-5-fluoro-2-((1-methyl-1H-indazol-5-yl)amino)nicotinamide], the values for the IC50 (in assay [1]; in the assay on THP-1 cells [2] (setting [4]); with THP-1 cells [3]) were below 10 nM, below 65 nM and 1000 to 3000 nM, respectively.
In the case of `Cc1ccc(Nc2nc(N[C@@H]3CCCC[C@@H]3N)c(F)cc2C(N)=O)cn1` [Example 004-017], the IC50 in assay [1] was in the range of 10 to 50 nM; in the assay on THP-1 cells [2] (THP-1 cells) it was 65 to 130 nM; in the assay on THP-1 cells [3], 3000 to 6000 nM.
On to `CCC[C@@H](Nc1nc(Nc2cncc(F)c2)c(C(N)=O)cc1F)[C@H](C)N` [Example 006-301, 6-(((2S,3R)-2-aminohexan-3-yl)amino)-5-fluoro-2-((5-fluoropyridin-3-yl)amino)nicotinamide], for which the results for the IC50 (in assay [1]; in the assay with THP-1 cells [2] (setting [4]); in the assay on THP-1 cells [3]) were 10 to 50 nM, 65 to 130 nM and 1000 to 3000 nM, respectively.
On the same counts, the results for `CCn1ncc2cc(Nc3nc(N[C@H](CC4CC4)[C@H](C)N)c(F)cc3C(N)=O)ccc21` [Example 006-342, 6-(((2R,3S)-3-amino-1-cyclopropylbutan-2-yl)amino)-2-((1-ethyl-1H-indazol-5-yl)amino)-5-fluoronicotinamide] are below 10 nM, below 65 nM and 1000 to 3000 nM.
`NC(=O)c1cc(F)c(N[C@@H]2CCCC[C@@H]2N)nc1Nc1ccnc2[nH]ccc12` (relative stereo) [Example 004-060]: the IC50 in assay [1] is below 10 nM; with THP-1 cells [2] (setting [4]) it was below 65 nM; in the assay with THP-1 cells [3] it was 1000 to 3000 nM.
